Where “and” joins values, the source holds several entries; their conditions need not be identical. Equal entries are not always repeated. Inconclusive results and toxic doses are left out. Rule as the data show it: active = T/C of 150% or more; inactive = T/C below 125%.
Test system: L1210 leukemia ip in BDF1 mice, survival T/C
Assay: NCI In Vivo Anticancer Drug Screen. Data for tumor model L1210 Leukemia (intraperitoneal) in B6D2F1 (BDF1) mice
Conditions: endpoint: mean survival time, higher = longer survival
Method in brief: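 Value reflects the ratio of survival in compound-treated mice to survival in vehicle-treated controls, with both groups carrying the same transplanted tumor.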

[1] = dose: 100.0 mg/kg/injection, schedule: Q01DX009 (ip), vehicle: Klucel (hydroxypropylcellulose) (HPC)
[2] = dose: 200.0 mg/kg/injection, schedule: Q01DX009 (ip), vehicle: Klucel (hydroxypropylcellulose) (HPC)
[3] = dose: 100.0 mg/kg/injection, schedule: Q01DX009 (ip), vehicle: saline
[4] = dose: 100.0 mg/kg/injection, schedule: Q04DX003 (ip), vehicle: saline
[5] = dose: 200.0 mg/kg/injection, schedule: Q01DX009 (ip), vehicle: saline
[6] = dose: 200.0 mg/kg/injection, schedule: Q04DX003 (ip), vehicle: saline
[7] = dose: 400.0 mg/kg/injection, schedule: Q04DX003 (ip), vehicle: saline
[8] = dose: 100.0 mg/kg/injection, schedule: Q04DX003 (ip), vehicle: Klucel (hydroxypropylcellulose) (HPC)
[9] = dose: 200.0 mg/kg/injection, schedule: Q04DX003 (ip), vehicle: Klucel (hydroxypropylcellulose) (HPC)
[10] = dose: 400.0 mg/kg/injection, schedule: Q01DX009 (ip), vehicle: Klucel (hydroxypropylcellulose) (HPC)
[11] = dose: 400.0 mg/kg/injection, schedule: Q04DX003 (ip), vehicle: Klucel (hydroxypropylcellulose) (HPC)

Measured: T/C

Cc1cc(OC(=O)Nc2cccc3ccccc23)ccc1Cl
inactive: dose: 100.0 mg/kg/injection, schedule: Q01DX009 (ip), vehicle: carboxymethylcellulose (CMC) 97 % of control and 101 % of control | dose: 100.0 mg/kg/injection, schedule: Q04DX002 (ip), vehicle: Klucel (hydroxypropylcellulose) (HPC) 105 % of control | dose: 100.0 mg/kg/injection, schedule: Q04DX002 (ip), vehicle: carboxymethylcellulose (CMC) 93 % of control and 91 % of control | dose: 100.0 mg/kg/injection, schedule: Q04DX003 (ip), vehicle: carboxymethylcellulose (CMC) 103 % of control | dose: 200.0 mg/kg/injection, schedule: Q01DX009 (ip), vehicle: carboxymethylcellulose (CMC) 98 % of control and 91 % of control | dose: 200.0 mg/kg/injection, schedule: Q04DX002 (ip), vehicle: Klucel (hydroxypropylcellulose) (HPC) 97 % of control | dose: 200.0 mg/kg/injection, schedule: Q04DX002 (ip), vehicle: carboxymethylcellulose (CMC) 97 % of control and 98 % of control | dose: 200.0 mg/kg/injection, schedule: Q04DX003 (ip), vehicle: carboxymethylcellulose (CMC) 94 % of control | dose: 400.0 mg/kg/injection, schedule: Q01DX009 (ip), vehicle: carboxymethylcellulose (CMC) 94 % of control and 98 % of control | dose: 400.0 mg/kg/injection, schedule: Q04DX002 (ip), vehicle: Klucel (hydroxypropylcellulose) (HPC) 109 % of control | dose: 400.0 mg/kg/injection, schedule: Q04DX002 (ip), vehicle: carboxymethylcellulose (CMC) 95 % of control | dose: 400.0 mg/kg/injection, schedule: Q04DX003 (ip), vehicle: carboxymethylcellulose (CMC) 90 % of control

Cc1cccc(C(=O)NNC(=O)c2cccc(C)c2)c1
inactive: [1] 106 % of control | [2] 108 % of control

O=C(O)C1CCCCN1[N+](=O)[O-] (configuration not stated)
inactive: dose: 100.0 mg/kg/injection, schedule: Q01DX001 (ip), vehicle: saline 96 % of control | dose: 200.0 mg/kg/injection, schedule: Q01DX001 (ip), vehicle: saline 100 % of control | dose: 400.0 mg/kg/injection, schedule: Q01DX001 (ip), vehicle: saline 100 % of control

O=S(=O)(c1ccc(Cl)cc1)N1CCN(S(=O)(=O)c2ccc(Cl)cc2)C1
inactive: [3] 97 % of control | [4] 95 % of control | [5] 94 % of control | [6] 92 % of control | dose: 400.0 mg/kg/injection, schedule: Q01DX009 (ip), vehicle: saline 92 % of control | [7] 103 % of control

C/C(=N\O)C1(O)CCCCC1
inactive: [1] 98 % of control | [8] 103 % of control | [2] 93 % of control | [9] 101 % of control | [10] 96 % of control | [11] 108 % of control

C=CCn1cnc(=N)c2[nH]cnc21
inactive: dose: 50.0 mg/kg/injection, schedule: Q01DX009 (ip), vehicle: saline 94 % of control | [3] 87 % of control | [4] 90 % of control | [5] 93 % of control | [6] 94 % of control

c1ccc(CSc2nccc(NN=C3CCCCC3)n2)cc1
inactive: dose: 25.0 mg/kg/injection, schedule: Q01DX001 (ip), vehicle: DMSO 90 % of control | dose: 50.0 mg/kg/injection, schedule: Q01DX001 (ip), vehicle: DMSO 88 % of control | dose: 75.0 mg/kg/injection, schedule: Q01DX009 (ip), vehicle: DMSO 92 % of control | dose: 100.0 mg/kg/injection, schedule: Q01DX001 (ip), vehicle: DMSO 88 % of control | dose: 150.0 mg/kg/injection, schedule: Q01DX009 (ip), vehicle: DMSO 94 % of control | dose: 200.0 mg/kg/injection, schedule: Q01DX001 (ip), vehicle: DMSO 91 % of control | dose: 400.0 mg/kg/injection, schedule: Q01DX001 (ip), vehicle: DMSO 100 % of control

Nc1ccc([N+](=O)[O-])cc1[N+](=O)[O-]
inactive: dose: 25.0 mg/kg/injection, schedule: Q04DX003 (ip), vehicle: Klucel (hydroxypropylcellulose) (HPC) 103 % of control | dose: 50.0 mg/kg/injection, schedule: Q04DX003 (ip), vehicle: Klucel (hydroxypropylcellulose) (HPC) 98 % of control | [8] 95 % of control and 105 % of control

CSc1nc(SC)c(Cl)c(C(Cl)Cl)n1
inactive: [8] 98 % of control | [9] 94 % of control | [11] 102 % of control

O=[N+]([O-])c1cccc(OCCCOc2ccccc2)c1
inactive: dose: 100.0 mg/kg/injection, schedule: Q01DX009 (ip), vehicle: other 100 % of control | dose: 200.0 mg/kg/injection, schedule: Q01DX009 (ip), vehicle: other 92 % of control | dose: 400.0 mg/kg/injection, schedule: Q01DX009 (ip), vehicle: other 103 % of control

O=C(Nc1cccc(C2=NCCN2)c1)c1ccc(N=Nc2ccc(C(=O)Nc3cccc(C4=NCCN4)c3)cc2)cc1
inactive: dose: 93.0 mg/kg/injection, schedule: Q01DX Z (ip), vehicle: water 93 % of control | dose: 186.0 mg/kg/injection, schedule: Q01DX Z (ip), vehicle: water 100 % of control

CCN(CC)CCCCNc1ccc(NCCCCN(CC)CC)c2c1C(=O)c1ccccc1C2=O
inactive: dose: 25.0 mg/kg/injection, schedule: Q04DX002 (ip), vehicle: alcohol 106 % of control | dose: 50.0 mg/kg/injection, schedule: Q04DX002 (ip), vehicle: alcohol 95 % of control | dose: 100.0 mg/kg/injection, schedule: Q04DX002 (ip), vehicle: alcohol 92 % of control

CCCCCCCCC(CCCC1CCCC1)CCCC1CCCC1
inactive: dose: 100.0 mg/kg/injection, schedule: Q01DX001 (ip), vehicle: saline with Tween-80 98 % of control | dose: 200.0 mg/kg/injection, schedule: Q01DX001 (ip), vehicle: saline with Tween-80 94 % of control | dose: 400.0 mg/kg/injection, schedule: Q01DX001 (ip), vehicle: saline with Tween-80 96 % of control

Br/C=C/C1CCCCC1
inactive: dose: 100.0 mg/kg/injection, schedule: Q01DX009 (ip), vehicle: acetone 104 % of control | [4] 105 % of control | dose: 200.0 mg/kg/injection, schedule: Q01DX009 (ip), vehicle: acetone 123 % of control | [6] 92 % of control | dose: 400.0 mg/kg/injection, schedule: Q01DX009 (ip), vehicle: acetone 107 % of control | [7] 92 % of control

CCCCCCN(CCCCCC)C(=S)[S-].CCCCCCN(CCCCCC)C(=S)[S-].[Zn]
inactive: dose: 75.0 mg/kg/injection, schedule: Q01DX001 (ip), vehicle: saline 112 % of control | dose: 150.0 mg/kg/injection, schedule: Q01DX001 (ip), vehicle: saline 104 % of control | dose: 300.0 mg/kg/injection, schedule: Q01DX001 (ip), vehicle: saline 103 % of control

O=[N+]([O-])c1ccc(N2CCC(CCCC3CCN(c4ccc([N+](=O)[O-])cc4[N+](=O)[O-])CC3)CC2)c([N+](=O)[O-])c1
inactive: dose: 25.0 mg/kg/injection, schedule: Q01DX009 (ip), vehicle: Klucel (hydroxypropylcellulose) (HPC) 101 % of control | dose: 50.0 mg/kg/injection, schedule: Q01DX009 (ip), vehicle: Klucel (hydroxypropylcellulose) (HPC) 93 % of control | [1] 95 % of control and 105 % of control | [8] 98 % of control | [9] 97 % of control | [11] 104 % of control

Cc1ccc([N+](=O)[O-])cc1NC(=O)NNC(=O)CNC(=O)Nc1ccc(F)cc1
inactive: dose: 25.0 mg/kg/injection, schedule: Q01DX009 (ip), vehicle: saline with Tween-80 94 % of control | dose: 50.0 mg/kg/injection, schedule: Q01DX009 (ip), vehicle: saline with Tween-80 86 % of control | dose: 100.0 mg/kg/injection, schedule: Q01DX009 (ip), vehicle: saline with Tween-80 100 % of control

O=C(Oc1ccccc1)C(Cl)(Cl)Cl
inactive: dose: 6.25 mg/kg/injection, schedule: Q01DX009 (ip), vehicle: saline 95 % of control | dose: 12.5 mg/kg/injection, schedule: Q01DX009 (ip), vehicle: saline 92 % of control | dose: 25.0 mg/kg/injection, schedule: Q01DX009 (ip), vehicle: saline 89 % of control | dose: 100.0 mg/kg/injection, schedule: Q01DX001 (ip), vehicle: acetone 98 % of control | dose: 100.0 mg/kg/injection, schedule: Q04DX003 (ip), vehicle: acetone 95 % of control | dose: 200.0 mg/kg/injection, schedule: Q01DX001 (ip), vehicle: acetone 90 % of control | dose: 200.0 mg/kg/injection, schedule: Q04DX003 (ip), vehicle: acetone 98 % of control | dose: 400.0 mg/kg/injection, schedule: Q01DX001 (ip), vehicle: acetone 100 % of control

Cn1nc(N)c2cc(C#N)c(N)nc21
inactive: [1] 90 % of control | [2] 90 % of control | [10] 95 % of control

— PubChem BioAssay AID248 (DTP/NCI, 2004)
